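Briefly, cells in 96-well plates were exposed to five compound concentrations for 48 h, and endpoints were estimated by linear interpolation. GI50 is the concentration that inhibits growth by half.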 The source made the active and inactive calls. Cut-off read from the data, not from the text of the source: active = GI50 up to about 1.1 µM and inactive = higher.
Assays:
Assay in all cases: NCI anticancer screen, dose series, 48 h
SN12C = system: SN12C
OVCAR-8 = system: OVCAR-8
CAKI-1 = system: CAKI-1
U-251 = system: U-251
NCI-H522 = system: NCI-H522
MOLT-4 = system: MOLT-4
HOP-62 = system: HOP-62
KM12 = system: KM12
786-0 = system: 786-0
SK-MEL-5 = system: SK-MEL-5
T47D = system: T47D
NCI-H226 = system: NCI-H226
OVCAR-5 = system: OVCAR-5
ACHN = system: ACHN
SF-268 = system: SF-268
UO-31 = system: UO-31
PC-3 = system: PC-3
HCC 2998 = system: HCC 2998
NCI-H460 = system: NCI-H460
A549 = system: A549

Measured: GI50

OC(c1ccc(F)cc1)(c1ccc(F)cc1)C1CC1
inactive: SN12C 20.9 µM | OVCAR-8 37.2 µM | CAKI-1 25.3 µM | U-251 24 µM | NCI-H522 21.2 µM | MOLT-4 21.5 µM | HOP-62 65.9 µM | KM12 26.7 µM | 786-0 29.2 µM | SK-MEL-5 16.6 µM | T47D 38 µM | NCI-H226 26.6 µM | OVCAR-5 37.3 µM | ACHN 30.1 µM | SF-268 32.2 µM | UO-31 21.3 µM | PC-3 20 µM | HCC 2998 20.5 µM | NCI-H460 29 µM | A549 26.6 µM

CCN(CC)CCOC(=O)Cc1cccc2c(=O)cc(-c3ccccc3)oc12
inactive: SN12C 51.2 µM | OVCAR-8 51.4 µM | CAKI-1 13.6 µM | U-251 50.2 µM | NCI-H522 40.8 µM | MOLT-4 42.9 µM | HOP-62 46.8 µM | KM12 34.8 µM | 786-0 55.1 µM | SK-MEL-5 32 µM | T47D 30.4 µM | NCI-H226 38.8 µM | OVCAR-5 57.9 µM | ACHN 45.2 µM | SF-268 47.2 µM | UO-31 5.79 µM | PC-3 49.3 µM | HCC 2998 44.6 µM | NCI-H460 10.2 µM | A549 6.62 µM

Cc1cnc(-n2c(C)nc3cc(Cl)ccc3c2=O)s1
inactive: SN12C 34.2 µM | OVCAR-8 45.7 µM | CAKI-1 64.3 µM | U-251 30.5 µM | NCI-H522 22 µM | MOLT-4 30.8 µM | HOP-62 > 100 µM | KM12 21.8 µM | 786-0 24.5 µM | SK-MEL-5 16 µM | T47D 21.3 µM | NCI-H226 32 µM | OVCAR-5 56.4 µM | ACHN 31 µM | SF-268 44.1 µM | UO-31 1.28 µM | PC-3 27.9 µM | HCC 2998 26.5 µM | NCI-H460 30.2 µM | A549 32.7 µM

CSC1=N/C(=C\c2ccco2)C(=O)N1CN1CCOCC1
inactive: SN12C > 52.8 µM | OVCAR-8 58.9 µM | CAKI-1 32 µM | U-251 > 100 µM | NCI-H522 > 100 µM | MOLT-4 59.7 µM | HOP-62 > 100 µM | KM12 > 70.1 µM | 786-0 48.6 µM | SK-MEL-5 41.1 µM | T47D 48.1 µM | NCI-H226 75 µM | OVCAR-5 > 100 µM | ACHN 43 µM | SF-268 > 44.4 µM | UO-31 > 69.8 µM | PC-3 > 93.8 µM | HCC 2998 25.7 µM | NCI-H460 13.9 µM | A549 > 100 µM

From ChEMBL document CHEMBL1201862, “PubChem BioAssay data set” (2004)
